Measurements taken from PMC10692473 (Acta Pharmaceutica Sinica. B, 2023).
Values after ≈ are worked out from the molar mass of the structure shown.

Key:
[1] = system: methicillin-resistant S. aureus (ATCC43300); assay: Mouse model of sepsis induced by MRSA; type: in vivo, ICR mice; conditions: 10 mg/kg ig, MRSA ATCC43300, observed 7 days
S. aureus (ATCC29213) [2] = assay: Antibacterial assay; conditions: Staphylococcus aureus, ATCC29213, read-out: MIC S. aureus (ATCC29213)
E. coli gyrase = E. coli gyrase (Escherichia coli, UniProt P0AES6); assay: Gyrase inhibitory assay; type: biochemical
S. aureus gyrase = S. aureus gyrase (Staphylococcus aureus, UniProt P0A0K8); assay: Gyrase inhibitory assay; type: biochemical
E. coli (ATCC25922) = assay: Antibacterial assay; conditions: for MIC: Escherichia coli, ATCC25922, read-out: MIC E. coli (ATCC25922)
E. coli Topo IV = E. coli Topo IV (Escherichia coli, UniProt P20083); assay: Topo IV inhibitory assay; type: biochemical
S. aureus Topo IV = S. aureus Topo IV (Staphylococcus aureus, UniProt P0C1S7); assay: Topo IV inhibitory assay; type: biochemical
MRSA (ATCC43300) = assay: Neutropenic murine thigh MRSA infection model; type: in vivo, ICR mice; conditions: neutropenic mouse thigh MRSA infection, iv
S. aureus MSSA15-2 = assay: Antibacterial spectrum; conditions: Staphylococcus aureus, MSSA152
S. aureus VISA5827 = assay: Antibacterial spectrum; conditions: Staphylococcus aureus
S. aureus MRSA15-1 = assay: Antibacterial spectrum; conditions: Staphylococcus aureus, MRSA151
E. faecium EFM19-1 = assay: Antibacterial spectrum; conditions: Enterococcus faecium, EFM191
E. faecalis ATCC51299 = assay: Antibacterial spectrum; conditions: Enterococcus faecalis
S. aureus MSSA15-1 = assay: Antibacterial spectrum; conditions: Staphylococcus aureus, MSSA151
S. epidermidis MRSE15-2 = assay: Antibacterial spectrum; conditions: Staphylococcus epidermidis, MRSE152
S. epidermidis MSSE15-3 = assay: Antibacterial spectrum; conditions: Staphylococcus epidermidis, MSSE153
E. faecalis ATCC51575 = assay: Antibacterial spectrum; conditions: Enterococcus faecalis
S. aureus (ATCC29213) [3] = assay: Time-killing curves / killing kinetic studies; type: cell-based; conditions: 4, 8, and 16 × MIC
HepG2 cells = assay: Mitochondrial toxicity
S. aureus ATCC43300 = assay: Antibacterial spectrum; conditions: Staphylococcus aureus
S. aureus GyrB24 = S. aureus GyrB24 (Staphylococcus aureus, UniProt P0A0K8); assay: Surface plasmon resonance; type: binding
S. epidermidis MRSE15-1 = assay: Antibacterial spectrum; conditions: Staphylococcus epidermidis, MRSE151
S. aureus VISA5836 = assay: Antibacterial spectrum; conditions: Staphylococcus aureus
S. aureus MRSA15-2 = assay: Antibacterial spectrum; conditions: Staphylococcus aureus, MRSA152

Chain of S. aureus gyrase (P0A0K8 whole entry): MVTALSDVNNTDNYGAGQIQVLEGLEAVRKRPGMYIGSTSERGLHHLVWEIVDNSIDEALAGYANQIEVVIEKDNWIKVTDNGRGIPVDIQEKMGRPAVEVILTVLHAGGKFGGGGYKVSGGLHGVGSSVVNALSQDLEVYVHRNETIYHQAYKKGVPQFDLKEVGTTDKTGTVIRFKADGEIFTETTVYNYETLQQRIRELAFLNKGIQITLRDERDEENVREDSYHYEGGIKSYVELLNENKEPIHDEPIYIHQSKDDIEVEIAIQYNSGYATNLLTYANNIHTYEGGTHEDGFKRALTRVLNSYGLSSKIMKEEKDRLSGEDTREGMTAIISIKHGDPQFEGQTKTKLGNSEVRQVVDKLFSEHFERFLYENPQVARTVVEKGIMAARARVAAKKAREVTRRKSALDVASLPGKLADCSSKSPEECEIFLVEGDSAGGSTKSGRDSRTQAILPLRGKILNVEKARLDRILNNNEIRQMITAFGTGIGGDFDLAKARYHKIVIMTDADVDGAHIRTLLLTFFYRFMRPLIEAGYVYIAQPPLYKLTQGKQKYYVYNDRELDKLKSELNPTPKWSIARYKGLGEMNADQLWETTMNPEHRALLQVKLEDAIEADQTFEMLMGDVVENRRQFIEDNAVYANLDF
Chain of S. aureus gyrase (P20831 whole entry partner): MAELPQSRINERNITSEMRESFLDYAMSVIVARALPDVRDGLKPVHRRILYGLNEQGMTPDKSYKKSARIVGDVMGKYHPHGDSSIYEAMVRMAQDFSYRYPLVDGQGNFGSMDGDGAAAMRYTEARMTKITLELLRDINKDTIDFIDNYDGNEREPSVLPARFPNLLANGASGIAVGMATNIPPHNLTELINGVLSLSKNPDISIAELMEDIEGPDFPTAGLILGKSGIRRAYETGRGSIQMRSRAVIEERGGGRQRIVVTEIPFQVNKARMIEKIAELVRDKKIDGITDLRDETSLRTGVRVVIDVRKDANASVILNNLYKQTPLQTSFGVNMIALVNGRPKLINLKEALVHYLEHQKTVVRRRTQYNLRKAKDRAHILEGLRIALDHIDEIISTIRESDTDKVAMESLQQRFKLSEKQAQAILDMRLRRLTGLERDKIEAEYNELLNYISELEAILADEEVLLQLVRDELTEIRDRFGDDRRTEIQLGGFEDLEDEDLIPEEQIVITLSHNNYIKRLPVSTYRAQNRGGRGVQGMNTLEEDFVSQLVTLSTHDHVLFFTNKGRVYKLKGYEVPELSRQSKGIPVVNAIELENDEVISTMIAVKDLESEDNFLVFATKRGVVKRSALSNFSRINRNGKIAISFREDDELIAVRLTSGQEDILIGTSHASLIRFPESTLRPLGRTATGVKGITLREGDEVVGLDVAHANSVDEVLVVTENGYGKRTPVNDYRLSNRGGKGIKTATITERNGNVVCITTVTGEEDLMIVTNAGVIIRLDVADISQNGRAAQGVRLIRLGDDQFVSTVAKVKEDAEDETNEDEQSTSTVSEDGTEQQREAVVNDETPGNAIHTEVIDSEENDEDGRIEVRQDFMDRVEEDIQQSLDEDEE
Chain of S. aureus Topo IV (P0C1S7 whole entry): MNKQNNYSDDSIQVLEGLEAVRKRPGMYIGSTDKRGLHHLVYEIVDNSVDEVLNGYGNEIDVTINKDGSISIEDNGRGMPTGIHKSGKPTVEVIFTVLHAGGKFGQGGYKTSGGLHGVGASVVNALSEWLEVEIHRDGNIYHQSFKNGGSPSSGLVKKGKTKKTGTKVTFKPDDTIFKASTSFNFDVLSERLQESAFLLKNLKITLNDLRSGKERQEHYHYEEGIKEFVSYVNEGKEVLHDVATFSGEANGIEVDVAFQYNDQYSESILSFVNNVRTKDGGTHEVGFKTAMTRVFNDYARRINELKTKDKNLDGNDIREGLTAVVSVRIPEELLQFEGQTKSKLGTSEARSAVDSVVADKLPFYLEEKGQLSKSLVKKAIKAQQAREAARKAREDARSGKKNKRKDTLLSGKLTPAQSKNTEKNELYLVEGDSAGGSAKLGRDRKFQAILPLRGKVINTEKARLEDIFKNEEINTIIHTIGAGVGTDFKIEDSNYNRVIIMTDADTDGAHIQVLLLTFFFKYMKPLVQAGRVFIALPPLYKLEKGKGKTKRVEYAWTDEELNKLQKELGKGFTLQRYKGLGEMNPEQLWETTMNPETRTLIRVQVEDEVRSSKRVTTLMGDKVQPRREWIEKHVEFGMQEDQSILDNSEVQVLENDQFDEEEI
Chain of S. aureus Topo IV (P0C1U9 whole entry partner): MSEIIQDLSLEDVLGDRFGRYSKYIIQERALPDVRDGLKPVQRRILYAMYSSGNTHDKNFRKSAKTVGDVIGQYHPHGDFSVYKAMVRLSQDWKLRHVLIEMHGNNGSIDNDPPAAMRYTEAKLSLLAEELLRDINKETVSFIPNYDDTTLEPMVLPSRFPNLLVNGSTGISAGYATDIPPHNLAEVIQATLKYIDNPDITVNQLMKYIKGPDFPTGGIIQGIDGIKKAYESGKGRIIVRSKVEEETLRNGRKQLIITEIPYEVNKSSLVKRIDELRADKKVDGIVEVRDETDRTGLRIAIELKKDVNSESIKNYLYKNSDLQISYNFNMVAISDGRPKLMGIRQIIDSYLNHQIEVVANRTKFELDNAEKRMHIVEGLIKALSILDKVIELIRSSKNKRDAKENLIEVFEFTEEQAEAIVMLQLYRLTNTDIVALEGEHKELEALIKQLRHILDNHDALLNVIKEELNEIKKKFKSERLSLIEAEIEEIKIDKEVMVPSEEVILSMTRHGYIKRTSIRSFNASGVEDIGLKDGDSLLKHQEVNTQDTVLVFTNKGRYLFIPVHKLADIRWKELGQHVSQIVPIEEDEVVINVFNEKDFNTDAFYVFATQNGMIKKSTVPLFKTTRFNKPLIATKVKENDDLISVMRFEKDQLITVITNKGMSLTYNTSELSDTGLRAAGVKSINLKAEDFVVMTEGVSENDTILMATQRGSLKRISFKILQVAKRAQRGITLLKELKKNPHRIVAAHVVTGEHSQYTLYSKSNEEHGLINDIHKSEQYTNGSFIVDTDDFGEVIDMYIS
Chain of E. coli Topo IV (P20083 whole entry): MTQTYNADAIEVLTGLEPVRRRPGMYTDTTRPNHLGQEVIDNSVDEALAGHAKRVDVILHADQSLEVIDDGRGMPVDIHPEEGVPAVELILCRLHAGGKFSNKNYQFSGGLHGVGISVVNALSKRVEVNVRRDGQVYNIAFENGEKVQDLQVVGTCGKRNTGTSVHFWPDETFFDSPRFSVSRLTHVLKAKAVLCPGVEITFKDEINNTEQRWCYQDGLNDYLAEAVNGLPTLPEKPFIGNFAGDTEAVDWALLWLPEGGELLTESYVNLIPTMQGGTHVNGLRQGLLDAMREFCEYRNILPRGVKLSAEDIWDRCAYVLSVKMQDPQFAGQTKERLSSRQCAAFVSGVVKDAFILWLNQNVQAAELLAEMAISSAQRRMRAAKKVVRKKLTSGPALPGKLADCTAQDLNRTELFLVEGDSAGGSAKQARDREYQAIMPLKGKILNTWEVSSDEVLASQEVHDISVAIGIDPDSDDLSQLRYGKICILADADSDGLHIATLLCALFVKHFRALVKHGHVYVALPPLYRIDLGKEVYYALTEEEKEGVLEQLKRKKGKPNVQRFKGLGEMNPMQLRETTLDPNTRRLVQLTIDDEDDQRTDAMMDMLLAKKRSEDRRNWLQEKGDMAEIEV
Chain of E. coli Topo IV (P0AFI2 whole entry partner): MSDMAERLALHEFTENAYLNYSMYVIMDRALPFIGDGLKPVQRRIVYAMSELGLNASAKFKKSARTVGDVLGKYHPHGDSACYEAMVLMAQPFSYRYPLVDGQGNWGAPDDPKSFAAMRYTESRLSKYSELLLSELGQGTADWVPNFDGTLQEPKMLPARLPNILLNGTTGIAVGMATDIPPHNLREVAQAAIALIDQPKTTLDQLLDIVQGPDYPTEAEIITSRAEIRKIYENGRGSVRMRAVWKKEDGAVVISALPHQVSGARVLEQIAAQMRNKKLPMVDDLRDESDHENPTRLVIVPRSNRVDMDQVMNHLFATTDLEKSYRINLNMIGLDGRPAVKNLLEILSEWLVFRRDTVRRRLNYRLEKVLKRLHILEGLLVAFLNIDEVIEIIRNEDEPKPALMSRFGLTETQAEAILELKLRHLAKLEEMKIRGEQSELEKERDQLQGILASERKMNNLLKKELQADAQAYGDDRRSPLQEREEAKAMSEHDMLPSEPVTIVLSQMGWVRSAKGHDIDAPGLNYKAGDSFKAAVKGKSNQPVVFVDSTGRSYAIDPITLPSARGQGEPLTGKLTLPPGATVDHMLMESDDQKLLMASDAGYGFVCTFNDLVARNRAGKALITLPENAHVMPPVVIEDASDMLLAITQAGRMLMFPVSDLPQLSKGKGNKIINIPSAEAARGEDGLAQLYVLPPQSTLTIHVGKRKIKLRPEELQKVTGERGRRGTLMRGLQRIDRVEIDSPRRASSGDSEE
Chain of S. aureus GyrB24 (P0A0K8 2-220): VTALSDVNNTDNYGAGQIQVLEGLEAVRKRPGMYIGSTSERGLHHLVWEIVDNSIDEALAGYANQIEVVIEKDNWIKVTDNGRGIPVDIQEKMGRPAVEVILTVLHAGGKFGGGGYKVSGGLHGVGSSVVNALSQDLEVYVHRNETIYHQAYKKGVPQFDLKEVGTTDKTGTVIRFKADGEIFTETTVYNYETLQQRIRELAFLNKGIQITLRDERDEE

Structure (SMILES) | protective effect / survival in mouse model of sepsis [1] | MIC (S. aureus (ATCC29213) [2]) [µg/mL] | IC50 (E. coli gyrase) [nM] | IC50 (S. aureus gyrase) [nM] | MIC (E. coli (ATCC25922)) [µg/mL] | IC50 (E. coli Topo IV) [nM] | IC50 (S. aureus Topo IV) [nM] | further results
CO[C@H]1CN(c2ccc(/C(C)=N/O)nn2)CC[C@H]1NC(=O)c1[nH]c(C)c(Cl)c1Cl [Compound 23, 3,4-Dichloro-N-((3S,4R)-1-(6-((E)-1-(hydroxyimino)ethyl)pyridazin-3-yl)-3-methoxypiperidin-4-yl)-5-methyl-1H-pyrrole-2-carboxamide] | weak protective effects | ≤ 0.015 | 2560 | 1490 ± 234 | 1 (≈ 2.27 µM) |  |  | 
COC(=O)c1ccc(N2CC[C@@H](NC(=O)c3[nH]c(C)c(Cl)c3Cl)[C@@H](OC)C2)nn1 [Compound 14, Methyl-6-((3S,4R)-4-(3,4-dichloro-5-methyl-1H-pyrrole-2-carboxamido)-3-methoxypiperidin-1-yl)pyridazine-3-carboxylate] | weak protective effects | 0.015 (≈ 0.0339 µM) | 3120 ± 923 | 136 ± 20 | 1 (≈ 2.26 µM) | > 10000 | 7180 ± 2810 | 
CN[C@H](CC(C)C)C(=O)N[C@H]1C(=O)N[C@@H](CC(N)=O)C(=O)N[C@H]2C(=O)N[C@H]3C(=O)N[C@H](C(=O)N[C@H](C(=O)O)c4cc(O)cc(O)c4-c4cc3ccc4O)[C@H](O)c3ccc(c(Cl)c3)Oc3cc2cc(c3O[C@@H]2O[C@H](CO)[C@@H](O)[C@H](O)[C@H]2O[C@H]2C[C@](C)(N)[C@H](O)[C@H](C)O2)Oc2ccc(cc2Cl)[C@H]1O [vancomycin, reference compound] |  |  |  |  |  |  |  | effective dose (MRSA (ATCC43300)): 110 mg/kg
CO[C@H]1CN(c2ccc(-c3nn[nH]n3)nn2)CC[C@H]1NC(=O)c1[nH]c(C)c(Cl)c1Cl [Compound 36, N-((3S,4R)-1-(6-(2H-Tetrazol-5-yl)pyridazin-3-yl)-3-methoxypiperidin-4-yl)-3,4-dichloro-5-methyl-1H-pyrrole-2-carboxamide] |  | 0.5 (≈ 1.11 µM) | > 10000 | > 10000 | 16 (≈ 35.4 µM) |  |  | 
COC[C@H](C)NC(=O)c1nc(N2CC[C@@H](NC(=O)c3[nH]c(C)c(Cl)c3Cl)[C@@H](OC)C2)sc1C(=O)O [AZD5099 (6), reference compound] | survived | 0.015 (≈ 0.0273 µM) | 760 | 32 ± 14 | 32 (≈ 58.3 µM) |  |  | MIC (S. aureus MSSA15-2): 0.03 µg/mL (≈ 0.0547 µM); MIC (S. aureus VISA5827): 0.015 µg/mL (≈ 0.0273 µM); MIC (S. aureus MRSA15-1): 0.03 µg/mL (≈ 0.0547 µM); MIC (E. faecium EFM19-1): 0.03 µg/mL (≈ 0.0547 µM); MIC (E. faecalis ATCC51299): 0.03 µg/mL (≈ 0.0547 µM); MIC (S. aureus MSSA15-1): 0.03 µg/mL (≈ 0.0547 µM); MIC (S. epidermidis MRSE15-2): 0.03 µg/mL (≈ 0.0547 µM); MIC (S. epidermidis MSSE15-3): 0.03 µg/mL (≈ 0.0547 µM); MIC (E. faecalis ATCC51575): 0.03 µg/mL (≈ 0.0547 µM); time-kill curve (S. aureus (ATCC29213) [3]): time-dependent bactericidal effect; mitochondrial toxicity (HepG2 cells; HepG2 cells, 400 μmol/L): complete damage; IC50 (HepG2 cells; Homo sapiens, HepG2, read-out: mitochondrial toxicity IC50): < 200000 nM; MIC (S. aureus ATCC43300): 0.03 µg/mL (≈ 0.0547 µM); Kd (S. aureus GyrB24): 83.8 nM; MIC (S. epidermidis MRSE15-1): 0.03 µg/mL (≈ 0.0547 µM); MIC (S. aureus VISA5836): 0.015 µg/mL (≈ 0.0273 µM); MIC (S. aureus MRSA15-2): 0.03 µg/mL (≈ 0.0547 µM)
CO[C@H]1CN(c2ccc(C(=O)C(F)(F)F)nn2)CC[C@H]1NC(=O)c1[nH]c(C)c(Cl)c1Cl [Compound 22, 3,4-Dichloro-N-((3S,4R)-3-methoxy-1-(6-(2,2,2-trifluoroacetyl)pyridazin-3-yl)piperidin-4-yl)-5-methyl-1H-pyrrole-2-carboxamide] | weak protective effects | ≤ 0.015 | 788 ± 289 | 45 ± 9 | 1 (≈ 2.08 µM) | > 10000 | 2130 ± 753 | 
CO[C@H]1CN(c2ccc(CO)nn2)CC[C@H]1NC(=O)c1[nH]c(C)c(Cl)c1Cl [Compound 27, 3,4-Dichloro-N-((3S,4R)-1-(6-(hydroxymethyl)pyridazin-3-yl)-3-methoxypiperidin-4-yl)-5-methyl-1H-pyrrole-2-carboxamide] |  | 0.03 (≈ 0.0724 µM) | 5110 ± 545 | 94 ± 40 | 4 (≈ 9.66 µM) |  |  | 
CO[C@H]1CN(c2ccc(C(=N)N)nn2)CC[C@H]1NC(=O)c1[nH]c(C)c(Cl)c1Cl [Compound 35, N-((3S,4R)-1-(6-Carbamimidoylpyridazin-3-yl)-3-methoxypiperidin-4-yl)-3,4-dichloro-5-methyl-1H-pyrrole-2-carboxamide] |  | 32 (≈ 75.1 µM) | > 10000 | > 10000 | > 128 |  |  | 
CO[C@H]1CN(c2ccc(/C(C)=N/OC(C)(C)C(=O)O)nn2)CC[C@H]1NC(=O)c1[nH]c(C)c(Cl)c1Cl [Compound 26, 2-((((E)-1-(6-((3S,4R)-4-(3,4-Dichloro-5-methyl-1H-pyrrole-2-carboxamido)-3-methoxypiperidin-1-yl)pyridazin-3-yl)ethylidene)amino)oxy)-2-methylpropanoic acid] |  | 0.125 (≈ 0.237 µM) | 869 ± 313 | 52 ± 13 | > 128 | > 10000 | 5710 ± 2140 | MIC E. coli (ATCC25922) (E. coli (ATCC25922)): inactive
CO[C@@H]1[C@@H](OC(N)=O)[C@@H](O)[C@H](Oc2ccc3c(O)c(NC(=O)c4ccc(O)c(CC=C(C)C)c4)c(=O)oc3c2C)OC1(C)C [novobiocin (1), novobiocin, reference compound] |  | 0.5 (≈ 0.816 µM) |  |  | 128 (≈ 209 µM) |  | 383 ± 120 | 
